Drawing on ChEMBL document CHEMBL3507680, “University of Dundee, Gates Library screen for HepG2 cell viability”, this text covers cytotoxicity for 104 compounds.

This data set can be described thus: Human HepG2 cell viability assay in 384 well format. Also noted: dose 125 nL, time 70.5 hour; concentration not given beside the values. The settings on record: HepG2 cells, read-out: Inhibition. It is filed as toxicity, cell-based.

`c1coc(-c2noc(CN3CCc4c(ncn4C4CC4)C3)n2)c1`: the cytotoxicity at 70.5 h came to 1.12%.

On to `CC(C)CC(CCO)CNC(=O)N1CC(C)(C)C1(C)C` (centres undefined), for which the cytotoxicity at 70.5 h was -7.83%.

Consider `Cc1ccc(OCCN(C)Cc2ccc(S(=O)(=O)N(C)C)o2)cc1`, for which the cytotoxicity at 70.5 h was -5.02%.

Regarding `Cc1ccc(-c2nnc(C(C)N3CCc4cncnc4C3)o2)cc1` (centres undefined), the cytotoxicity at 70.5 h came to 1.38%.

For the compound `CC(O)CN1CCC(CN(C)C(=O)NC2CC2)CC1` (centres undefined), the cytotoxicity at 70.5 h is -1.96%.

On to `NC(=O)CN(Cc1ccc(Br)cc1)C(=O)c1cccnc1`, for which the cytotoxicity at 70.5 h is -3.52%.

On to `O=C(Nc1ccccc1Cn1cccn1)N1CCCC(N2CCCC2)C1` (centres undefined), for which the cytotoxicity at 70.5 h is 16.1%.

For `COC(=O)C(C)(C)S(=O)(=O)c1ccc(Br)cc1`, the cytotoxicity at 70.5 h is -1.38%.

For `Cc1ccc(N(C)C2CCN(C(=O)c3n[nH]c4c3CCC4)CC2)nn1`, the cytotoxicity at 70.5 h is -3.25%.

Consider `CC(C)(C(=O)O)S(=O)(=O)c1ccc(Br)cc1`, for which the cytotoxicity at 70.5 h worked out at 0.0653%.

In the case of `O=C1C(Sc2nnnn2C2CC2)CCN1c1ccccc1Cl` (centres undefined), the cytotoxicity at 70.5 h was -6.47%.

As to `Cc1nc(O)ccc1C(=O)NCc1ncccc1F`, the cytotoxicity at 70.5 h is -2.33%.

As for `N#CCCN(CC(F)(F)F)C(=O)c1cc(-n2cccn2)ccn1`, the cytotoxicity at 70.5 h was -3.35%.

For `Cc1cc(CNC2(c3ccccc3F)CC2)no1`, the cytotoxicity at 70.5 h was -4.02%.

As to `Cc1nc(CN(C)c2cc(N3CCCC3CO)ncn2)cs1` (centres undefined), the cytotoxicity at 70.5 h was -3.26%.

Consider `Cc1cnn(CCNCc2c(C)nn(-c3ccccc3)c2C)c1`, for which the cytotoxicity at 70.5 h stood at 2.45%.

For `N#Cc1ccnc(N2CCN(C(=O)c3ccc4c(c3)CCO4)CC2)c1`, the cytotoxicity at 70.5 h was -3.35%.

With `O=S(=O)(NCCSc1nccn1C1CC1)c1ccccc1`, the cytotoxicity at 70.5 h was -3.08%.

`COCCN(CCOC)C(=O)c1cc(F)cc2[nH]cnc12`: the cytotoxicity at 70.5 h is -4.53%.

Regarding `CCN(CC)C(=O)c1cccc(Cn2nc(C)cc2C)c1`, the cytotoxicity at 70.5 h was -8.82%.

On to `Cc1nn(CN(CC2CCOC2)C2CC2)c(=O)c2ccccc12` (centres undefined), for which the cytotoxicity at 70.5 h was -3.01%.

Turning to `N#Cc1c(Cl)nsc1N1CCN(CC2CCCCC2)CC1`, the cytotoxicity at 70.5 h was 0.793%.

`COC(=O)NC1(C(=O)Nc2ccc(-c3cc[nH]n3)cc2)CCCC1`: the cytotoxicity at 70.5 h is -0.955%.

Consider `COC(=O)NC1(C(=O)Nc2ccc(-c3ncc[nH]3)cc2)CCCC1`, for which the cytotoxicity at 70.5 h is 1.15%.

As for `O=C(O)CC1CN(S(=O)(=O)c2cccc(F)c2)c2ccccc21` (centres undefined), the cytotoxicity at 70.5 h is 22.7%.

Turning to `Cc1cc(NS(=O)(=O)CC2CCCCO2)ccc1F` (centres undefined), the cytotoxicity at 70.5 h was -2.48%.

Consider `N#Cc1cc(NS(=O)(=O)CC2CCCCO2)ccc1F` (centres undefined), for which the cytotoxicity at 70.5 h is -0.517%.

As to `COCCCOC1CN(C(=O)c2[nH]nc3c2CCCC3)C1`, the cytotoxicity at 70.5 h stood at 4%.

Consider `CC(C)(C)OC(=O)N1CCCN1C(=O)c1cccc2cc[nH]c12`, for which the cytotoxicity at 70.5 h came out at 3.87%.

With `Cc1ccc(-c2ncc(CNc3cnccc3CO)s2)o1`, the cytotoxicity at 70.5 h is -2.69%.

As to `Cc1ncc(CNc2cnccc2CO)s1`, the cytotoxicity at 70.5 h was 6.67%.

`CSC1(CNC(=O)NC(C)c2ccc(F)cc2)CCOCC1` (centres undefined): the cytotoxicity at 70.5 h came out at 6.41%.

`COCCN(CCOC)C(=O)c1ccc(Cn2nc(C)cc2C)cc1`: the cytotoxicity at 70.5 h came to 7.43%.

On to `Cc1cc(CN(CCCO)c2ccccc2)on1`, for which the cytotoxicity at 70.5 h is -0.833%.

Turning to `Cc1cc(CN(CCO)c2ccccc2)on1`, the cytotoxicity at 70.5 h was 0.618%.

On to `Cc1csc(CNc2cnn(C(C)C)c2)n1`, for which the cytotoxicity at 70.5 h worked out at 3.67%.

In the case of `Cc1csc(CNc2cnn(CC(F)(F)F)c2)n1`, the cytotoxicity at 70.5 h is -2.55%.

With `COc1cccc(C(O)C(=O)N(C)CCc2ccccn2)c1` (centres undefined), the cytotoxicity at 70.5 h was -0.0669%.

With `CC(=O)N(Cc1noc(C)n1)C1CCN(CC2CCCC2)C1` (centres undefined), the cytotoxicity at 70.5 h turned out to be 23.3%.

On to `O=C1CCCN1c1cccc(CNCc2nc(C3CC3)no2)c1`, for which the cytotoxicity at 70.5 h stood at 8.67%.

Regarding `CN(Cc1ccncc1)C(CO)c1cccc(Br)c1` (centres undefined), the cytotoxicity at 70.5 h is -21%.

`c1ccc(Cn2cccn2)c(CNCc2cnc(N3CCCC3)nc2)c1`: the cytotoxicity at 70.5 h is -13.6%.

`CNC(=O)NC(=O)CCSCc1cc(F)cc2cccnc12`: the cytotoxicity at 70.5 h is -27.1%.

Regarding `O=C(Nc1ccc(=O)n(Cc2ccccc2Cl)c1)C1CC1`, the cytotoxicity at 70.5 h was -23.5%.

`Cc1cc(C)cc(C(=O)N2CCCN(CC(N)=O)CC2)c1`: the cytotoxicity at 70.5 h amounted to 37.8%.

With `Cc1nc(NC(=O)N[C@H](CO)c2ccccc2)sc1C`, the cytotoxicity at 70.5 h was -15.6%.

With `CN(C(=O)C1CCC1)C1CCN(c2ccccc2Cl)C1=O` (centres undefined), the cytotoxicity at 70.5 h was -26.5%.

As to `c1cnn(CCNCc2cnc(N3CCCC3)nc2)c1`, the cytotoxicity at 70.5 h is -9.32%.

As for `Cc1nccn1CCCNc1ncccc1C#N`, the cytotoxicity at 70.5 h is -13.8%.

In the case of `Cn1cc(NC(=O)Nc2cccc3cccnc23)ccc1=O`, the cytotoxicity at 70.5 h amounted to 53.3%.

`Brc1cnc(NCc2ccccc2N2CCOCC2)nc1`: the cytotoxicity at 70.5 h is -1.21%.

Take `Cc1ccnc(NCc2ccccc2N2CCOCC2)n1`: the cytotoxicity at 70.5 h is -16.7%.

Regarding `COc1c(C)cnc(CSc2nnc(C)s2)c1C`, the cytotoxicity at 70.5 h was -5.43%.

For the compound `CC(=O)Nc1cc(C(=O)N2CCOCC2c2ccc(C)o2)ccc1F` (centres undefined), the cytotoxicity at 70.5 h was -6.36%.

As to `Cc1nn(C)c(Cl)c1C1CCCN1c1ncnc2sccc12` (centres undefined), the cytotoxicity at 70.5 h is -1.91%.

On to `Cc1cnn(CCNCc2csc(C)n2)c1`, for which the cytotoxicity at 70.5 h is -5.62%.

On to `Cc1nn(C)c(C)c1C1COCCN1c1ncnc2sccc12` (centres undefined), for which the cytotoxicity at 70.5 h was -11.4%.

Consider `COc1ncccc1NC(=O)N1CCC(CN2CCOCC2)CC1`, for which the cytotoxicity at 70.5 h was -6.27%.

Take `O=C(NCc1ccccc1CN1CCC(O)CC1)Nc1ccncc1`: the cytotoxicity at 70.5 h amounted to 9.61%.

As to `CN(Cc1ccc(F)cc1)C(=O)NCC1(N2CCOCC2)CCSC1` (centres undefined), the cytotoxicity at 70.5 h stood at 11.7%.

Take `Cc1ccccc1C(=O)NCc1ccc(N2CCNC(=O)C2)cc1`: the cytotoxicity at 70.5 h was -10.2%.

Regarding `CC(=O)c1ccc(OCC(=O)NC(C)CCc2ccco2)cc1` (centres undefined), the cytotoxicity at 70.5 h is -18.1%.

Regarding `Cc1csc(CNC(=O)NCC(O)c2cccc(Cl)c2)n1` (centres undefined), the cytotoxicity at 70.5 h was -11%.

`Cc1ccc(C)c(C(=O)CN2C(=O)c3ccccc3CS2(=O)=O)c1`: the cytotoxicity at 70.5 h is -15%.

Consider `Cc1ccccc1C(=O)CN1C(=O)c2ccccc2CS1(=O)=O`, for which the cytotoxicity at 70.5 h was 5.68%.

In the case of `CC(=O)N(C)c1nc(CN2CCOC(Cn3cccn3)C2)cs1` (centres undefined), the cytotoxicity at 70.5 h is -11.7%.

For the compound `O=C(NCCOc1ccc(F)c(F)c1)NCc1ccncc1`, the cytotoxicity at 70.5 h is -11.2%.

Turning to `COCc1noc(C2(c3ccc(OC)cc3)CCOCC2)n1`, the cytotoxicity at 70.5 h was -9.29%.

Turning to `CCOCC(=O)NC1(c2cccc(Br)c2)CC1`, the cytotoxicity at 70.5 h was 13.9%.

With `N#Cc1cc(NC(=O)c2ccsc2)ccc1N1CCC(O)CC1`, the cytotoxicity at 70.5 h was -11.8%.

Take `COc1ccccc1OCC(=O)NS(=O)(=O)c1cc(F)ccc1F`: the cytotoxicity at 70.5 h is -4.75%.

Consider `N#Cc1cc(NC(=O)C2CC=CC2)ccc1N1CCC(O)CC1`, for which the cytotoxicity at 70.5 h was -0.67%.

`Cc1ccc(-c2nc(CN3CCOC(c4ccccc4)C3)cs2)o1` (centres undefined): the cytotoxicity at 70.5 h was -9.61%.

As to `CCOC(C)c1nc(CN2CCC(CNC(C)=O)CC2)cs1` (centres undefined), the cytotoxicity at 70.5 h was -2.36%.

On to `CN(C)S(=O)(=O)N1CCCC1CC(=O)c1cccs1` (centres undefined), for which the cytotoxicity at 70.5 h was -9.51%.

With `COc1cc(C)c(C(C)NC(=O)Nc2nnc(C)s2)cc1OC` (centres undefined), the cytotoxicity at 70.5 h is -11.5%.

For the compound `COc1ccc(OCC(=O)NC(C)c2ccc(F)cc2)c(C(=O)O)c1` (centres undefined), the cytotoxicity at 70.5 h is -7%.

Take `OC(CN1CCN(c2ncccn2)CC1)c1cccc(F)c1` (centres undefined): the cytotoxicity at 70.5 h is -9.46%.

For the compound `CC(C)N(C)CCCNC(=O)c1cnc(-c2ccccc2)nc1`, the cytotoxicity at 70.5 h came out at 2.52%.

Consider `Cc1ccccc1CN1CCC(NCC2CNc3ccnn3C2)CC1` (centres undefined), for which the cytotoxicity at 70.5 h was found to be 0.228%.

For the compound `COc1c(CNC2CCCOc3ccccc32)c(C)nn1C` (centres undefined), the cytotoxicity at 70.5 h was -9.23%.

As to `N#Cc1ccc(CNC(=O)NC2CCN(CC(F)F)CC2)cc1`, the cytotoxicity at 70.5 h was -9.49%.

Take `COc1ccc(OCC(=O)NC(C)c2ccccc2)c(C(=O)O)c1` (centres undefined): the cytotoxicity at 70.5 h was -7.12%.

`N#Cc1ccnc(N2CCN(CC(O)c3cccc(F)c3)CC2)c1` (centres undefined): the cytotoxicity at 70.5 h is -7.6%.

Consider `COc1ccnc(N2CCN(C(=O)c3cnn(C)c3C3CC3)CC2)n1`, for which the cytotoxicity at 70.5 h is -6.28%.

As to `COc1ccnc(N2CCN(C(=O)c3csc(C(C)C)n3)CC2)n1`, the cytotoxicity at 70.5 h turned out to be 9.24%.

On to `Cc1cc2n(n1)CC(CNC1CCN(Cc3ccccc3C)CC1)CN2` (centres undefined), for which the cytotoxicity at 70.5 h came out at 5.18%.

In the case of `Cc1nc(CN2CCC(CNC(=O)Nc3ccccn3)CC2)oc1C`, the cytotoxicity at 70.5 h was -8.33%.

Regarding `COc1ccc(CNC(=O)NC2CCN(CC(F)F)CC2)cc1C`, the cytotoxicity at 70.5 h was -7.09%.

For the compound `CCOc1cc(F)ccc1NS(=O)(=O)c1cc(C)c(C(=O)O)s1`, the cytotoxicity at 70.5 h was -8.13%.

For `CSCC(C)(O)CNC(=O)c1ccc(Br)cc1F` (centres undefined), the cytotoxicity at 70.5 h is -5.28%.

As for `CC(NCc1ccncc1)c1cc(F)ccc1N1CCN(C)CC1` (centres undefined), the cytotoxicity at 70.5 h was -4.5%.

In the case of `CCC(C)N(C)CCNC(=O)NCc1cccc(-n2cncn2)c1` (centres undefined), the cytotoxicity at 70.5 h was -2.22%.

Turning to `Cc1cccc(C(=O)NC2CCN(c3cnn(C)c3)C2=O)n1` (centres undefined), the cytotoxicity at 70.5 h was found to be 12.5%.

As for `Fc1ccc2c(c1)C(NCc1nnc3n1CCCCC3)CCCO2` (centres undefined), the cytotoxicity at 70.5 h came to 3.88%.

For `CC(O)CC(C)(C)CNC(=O)NCc1cccc(-n2cncn2)c1` (centres undefined), the cytotoxicity at 70.5 h is -7.73%.

In the case of `CC(C)(C)OC(=O)N1CCCC[C@H]1C(=O)NCc1nccs1`, the cytotoxicity at 70.5 h is -9.82%.

Consider `O=S(=O)(CCN1CCOC(Cn2cncn2)C1)c1ccccc1` (centres undefined), for which the cytotoxicity at 70.5 h was -17.9%.

For `Cc1cnc(CN(Cc2ccccc2)CC(O)c2cccs2)cn1` (centres undefined), the cytotoxicity at 70.5 h is 7.82%.

Regarding `CSCC(C)(O)CNC(=O)c1ccc(Br)cc1C` (centres undefined), the cytotoxicity at 70.5 h was -9.56%.

Regarding `CC(C)c1noc(CCC(=O)NC(C)c2nnc3n2CCCCC3)n1` (centres undefined), the cytotoxicity at 70.5 h is -6.86%.

Turning to `Cc1cc(F)c(S(=O)(=O)NCC(C)(C)N)cc1F`, the cytotoxicity at 70.5 h was -10.9%.

Take `CCC(N)C(=O)N1CCC(OCc2ccc(Cl)c(Cl)c2)CC1` (centres undefined): the cytotoxicity at 70.5 h was determined as 8.03%.

For `CCCNC(c1cccnc1)c1ccc(F)c(C)c1` (centres undefined), the cytotoxicity at 70.5 h is -13.4%.
